For 118 compounds, logP results are on record in the OPERA property sets (Mansouri et al. 2018).

Broadly, the logP is the decadic logarithm of the partition coefficient of the neutral form, usually between octanol and water. A higher logP goes with higher lipophilicity. For the compound `CC(=O)OCC1=C(C(=O)O)N2C(=O)C(NC(=O)Cc3cc4ccccc4s3)C2SC1` (stereo not drawn), the lipophilicity (logP) worked out at 1.68.

In turn, `Cc1cc2n(c1C(=O)c1ccccc1)CCC2C(=O)O` (stereo not drawn) registered a lipophilicity (logP) of 2.85.

For the compound `COc1cccc2c1C(=O)c1c(O)c3c(c(O)c1C2=O)CC(O)(C(C)=O)CC3OC1CC(N(CC#N)CC(=O)O)C(O)C(C)O1` (stereo not drawn), the logP came out at 0.03.

With `NC(=S)NNCc1ccc2c(c1)OCO2`, the logP worked out at 0.14.

For the compound `CCn1cc(C(=O)O)c(=O)c2cc(F)c(N3CCN(C)CC3)c(F)c21`, the logP came to 0.3.

In the case of `O=P(OCC(Br)CBr)(OCC(Br)CBr)OCC(Br)CBr` (stereo not drawn), the logP came to 4.29.

Take `COc1ccc2cc(C(C)C(=O)OCC=C(C)CCC=C(C)C)ccc2c1` (stereo not drawn): the logP was 7.77.

Compound `NC(=O)Cc1ccc(C(=O)O)cc1` registered a logP of 0.3.

Compound `CCCCCN(C)C(=O)c1cccc(Oc2ccccc2)c1` displayed a logP of 4.43.

On to `COC(=O)NC1=NCC(c2ccccc2)N1C` (stereo not drawn), for which the lipophilicity (logP) is 1.57.

In the case of `CNC12CCCCC1CCc1ccc(OC)cc12` (stereo not drawn), the logP worked out at 3.75.

Consider `CCOP(=O)(O)Cc1ccc(Cl)cc1`, for which the logP amounted to 1.6.

Regarding `Nc1ccc(C(F)(F)F)cc1`, the log partition coefficient (logP) worked out at 1.95.

The compound `Clc1ccc(-c2ccc(Cl)cc2)cc1` gave a logP of 5.23.

Compound `O=C(O)CCc1ccc(OCc2ccccc2)cc1` showed a logP of 3.31.

`CC(C)(C)C(COc1ccc(F)cc1)OC(=S)n1ccnc1` (stereo not drawn): the logP was found to be 4.37.

With `CC(=O)Nc1nc(=O)cc(-c2ccc([N+](=O)[O-])o2)s1`, the logP was determined as 1.01.

`CON1C(=O)CC2(CCCC2)C1=O` yielded a log partition coefficient (logP) of 1.15.

`Cc1cc(C)c(C)c(C)c1` registered a log partition coefficient (logP) of 4.1.

`CCOC(=O)NC1=NCC(c2ccc(CO)cc2)N1C` (stereo not drawn) displayed a lipophilicity (logP) of 0.84.

For `NS(=O)(=O)c1ccc(S(=O)(=O)CCCO)c([N+](=O)[O-])c1`, the logP is -0.05.

With `NS(=O)(=O)c1cc2c(cc1Cl)NC(C(Cl)Cl)NS2(=O)=O` (stereo not drawn), the logP came out at 0.62.

Compound `CCOCCOCCOP(=S)(N1CC1)N1CC1` returned a logP of 0.38.

In the case of `N[C@H]1CCc2ccccc2[C@H]1O`, the logP came out at 0.86.

Compound `CNC(=O)c1cccc(Oc2ccccc2)c1` had a logP of 2.86.

On to `CCC(C(=O)OCc1ccc(Cl)cc1)C(CO)Cc1cncn1C` (stereo not drawn), for which the logP stood at 2.69.

Turning to `CC1(C)S[C@@H]2[C@H](NC(=O)C3(N)CCCCC3)C(=O)N2[C@H]1C(=O)O`, the logP amounted to 1.31.

With `N#Cc1ccccn1`, the logP worked out at 0.45.

Turning to `NC(=O)NCCC[C@H](N)C(=O)O`, the log partition coefficient (logP) was -3.19.

Turning to `CCCC(=O)OCn1cc2c(=O)[nH]cnc2n1`, the lipophilicity (logP) amounted to 0.33.

In turn, `Clc1cccc2cccc(Cl)c12` displayed a logP of 4.3.

In the case of `COc1ccc2c(c1)[nH]c1c(C)nccc12`, the logP worked out at 3.56.

For `CCC1(O)CC2CN(CCc3c([nH]c4ccccc34)C(C(=O)OC)(c3cc4c(cc3OC)N(C)C3C(O)(C(=O)OC)C(OC(=O)CN(C)C)C5(CC)C=CCN6CCC43C65)C2)C1` (stereo not drawn), the logP was 4.02.

For the compound `CC(C)(C)C(=O)OCC1OC(n2cc(I)c(=O)[nH]c2=O)CC1O` (stereo not drawn), the logP is 1.34.

`COC(=O)Nc1nc2cc(C(=O)c3ccccc3)ccc2[nH]1` showed a logP of 2.83.

Take `CC(=O)Nc1n[nH]c(C)cc1=O`: the logP is -0.89.

`CCC1(CC)C(=O)NCC(C)C1=O` (stereo not drawn) showed a logP of 0.78.

The compound `NC12CCCCC1c1ccccc1C2` (stereo not drawn) registered a log partition coefficient (logP) of 2.94.

`NS(=O)(=O)c1cc2c(cc1Cl)NC(c1ccccc1)=NS2(=O)=O` yielded a log partition coefficient (logP) of 1.4.

In the case of `CCCCN1Cn2c(nc3ccccc3c2=O)C1C` (stereo not drawn), the logP was found to be 1.6.

For `CN(C)C(=O)NCCCCn1nc(-c2ccccc2)ccc1=O`, the logP is 1.58.

`CN(C)CCN(Cc1cccs1)c1ccccn1`: the log partition coefficient (logP) came to 2.87.

For the compound `Nc1nc(=O)c2[nH]c(N)c(Cc3cccs3)c2[nH]1`, the logP was 1.01.

With `Cc1ccc(C)c(Oc2cccc(C(=O)NC(C)(C)C)c2)c1`, the logP came to 4.78.

The compound `C=CCC(CC=C)(C(=O)NC(N)=O)C(=O)OC` showed a logP of 1.37.

`Nn1c(S)nnc(-c2cc(Cl)cc(Cl)c2)c1=O` displayed a logP of 2.67.

`CCC(=O)O[C@]1(C(=O)CCl)[C@@H](C)C[C@H]2[C@@H]3CCC4=CC(=O)C=C[C@]4(C)[C@@]3(F)[C@@H](O)C[C@@]21C` had a logP of 3.5.

Take `CNC12CCCCC1COc1ccccc12` (stereo not drawn): the logP came to 3.31.

`CN1C(O)C(O)C(O)C(O)C1CO` (stereo not drawn) returned a logP of -2.4.

`Cc1cc(C(=O)O)ccc1N` returned a logP of 1.37.

For the compound `CNC12CC(O)CCC1CCc1ccccc12` (stereo not drawn), the logP turned out to be 2.37.

`NC(=O)OC1c2ccccc2C2CCCCC2C1OC(N)=O` (stereo not drawn) had a log partition coefficient (logP) of 2.17.

`CC=COCC(O)Cn1ccnc1[N+](=O)[O-]` (stereo not drawn) showed a logP of 0.28.

Consider `Cn1cnc([N+](=O)[O-])c1Cl`, for which the lipophilicity (logP) is 1.06.

In turn, `CNC(=S)NCC#CCC(NC(=O)C(Cc1ccc2ccccc2c1)Cc1cccc2ccccc12)C(=O)NC(CC1CCCCC1)C(O)CC(=O)NCCN1CCOCC1` (stereo not drawn) returned a logP of 5.46.

`CCc1ncc([N+](=O)[O-])n1CCNC(=S)OC` came in with a log partition coefficient (logP) of 1.46.

`CCCCCO` came in with a logP of 1.51.

The compound `OC(Cn1ccnc1)(c1ccc(F)cc1)c1ccc(Br)cc1` (stereo not drawn) displayed a logP of 3.42.

In turn, `O=C(Nc1ncnc2c1ncn2[C@@H]1O[C@H](CO)C[C@@H]1F)c1ccccc1` showed a logP of 0.73.

Take `CCCCn1ccc(=O)c(O)c1C`: the logP was found to be 0.7.

Compound `CCCNC(=O)c1ccco1` showed a logP of 1.1.

Consider `CNc1nnc(-c2cc(Cl)cc(Cl)c2)c(=O)n1N`, for which the logP was 1.91.

`CN(c1ccccc1)S(C)(=O)=O` came in with a logP of 1.02.

Take `CCC(CC)(C(=O)NC(N)=S)C(=O)OC`: the logP was 1.82.

Compound `CCOC(=O)c1cnc2n(c1=O)C(C)CCC2` (stereo not drawn) showed a logP of 0.62.

For the compound `CCCCCCCCN(C)N=Nc1[nH]cnc1C(N)=O`, the logP was 3.22.

As to `CCOC(=O)C=C1NC(=O)C(N2CCCCC2)S1` (stereo not drawn), the lipophilicity (logP) came to 2.34.

The compound `CNc1nc(C)c(C(=O)CCN2CCCC2)s1` yielded a logP of 1.86.

With `OC[C@@H](O)[C@@H](O)[C@H](O)[C@@H](O)CO`, the logP is -2.2.

With `CCN1C(=O)NC(Cc2ccccc2)C1=O` (stereo not drawn), the logP is 1.61.

With `CCOC(=O)C1(c2ccccc2)CCN(CCC(O)c2ccccc2)CC1` (stereo not drawn), the logP is 4.04.

As to `C=CC12COC(=O)C(=C)C1C1OC(=O)C(=C)C1C(OC(=O)C(=C)C)C2` (stereo not drawn), the logP turned out to be 1.56.

As to `Nc1c(Cl)c(Cl)cc(Cl)c1Cl`, the logP is 4.1.

For the compound `Nc1ccc(Cl)cc1Cl`, the logP amounted to 2.78.

The compound `Cn1c(S)nnc(-c2ccc(F)cc2)c1=O` had a logP of 2.38.

As for `Cc1ncc(OP(=O)(O)O)c(CO)c1O`, the logP was -0.64.

Compound `COC(=O)c1cnc2n(c1=O)C(C)CCC2` (stereo not drawn) registered a logP of 0.16.

For the compound `CCOC(=O)Nc1ccc2c(c1)N(C(=O)CCN1CCOCC1)c1ccccc1S2`, the logP turned out to be 2.98.

In turn, `CCCCC(=O)OC1C(CO)OC(n2cnc3c(OC)ncnc32)C1OC(=O)CCCC` (stereo not drawn) had a lipophilicity (logP) of 3.83.

Consider `CCC(C(=O)OCc1ccc(C)cc1)C(CO)Cc1cncn1C` (stereo not drawn), for which the logP is 2.46.

The compound `Cc1c(O)c(=O)ccn1CCC(=O)N(C)C` showed a logP of -1.16.

The compound `OC(Cn1ccnc1)(c1ccc(F)cc1)c1ccc(F)cc1` yielded a logP of 2.95.

As for `CCC(C)(C)c1ccc(CC(=O)O)cc1`, the logP worked out at 3.48.

`CC1CCC2C(C)C(O)OC3OC4(C)CCC1C32OO4` (stereo not drawn) had a logP of 2.19.

`CCc1c(O)c(=O)ccn1CCO` had a logP of -0.66.

In turn, `NS(=O)(=O)c1cc2c(cc1Cl)NC(C(F)(F)F)NS2(=O)=O` (stereo not drawn) came in with a logP of 0.49.

`COc1ccc2cc(C(C)C(=O)Oc3ccccc3)ccc2c1` (stereo not drawn) returned a logP of 5.17.

`CN(Cc1ccc(Br)cc1)N=O` came in with a logP of 1.57.

`CCCCCCC(=O)O` gave a logP of 2.42.

The compound `CC(O)Cn1cnc2c1c(=O)n(C)c(=O)n2C` (stereo not drawn) displayed a logP of -0.77.

As to `COC(=O)NC1=NCC(c2cccc(Cl)c2)N1C` (stereo not drawn), the lipophilicity (logP) is 2.1.

`CCN(C)C(=O)CCn1ccc(=O)c(O)c1C` registered a logP of -0.69.

The compound `CCCN(C)CC(F)(F)F` had a logP of 2.18.

In the case of `CC(C)c1ncc([N+](=O)[O-])[nH]1`, the logP was 0.9.

In the case of `CC1CCC=C2N(C)C=C(C(N)=O)C(=O)N21` (stereo not drawn), the logP worked out at 0.12.

Consider `CNC12CC=CCC1c1ccccc1C2` (stereo not drawn), for which the logP amounted to 3.28.

Regarding `O=C1NC(=O)C(Cc2ccccc2)(Cc2ccccc2)N1`, the logP was found to be 2.46.

`Nc1ccc(C(=O)O)cc1F`: the lipophilicity (logP) was determined as 1.41.

In turn, `CCN(CC)C(=O)c1ccccc1C` registered a logP of 2.02.

`COc1ncc(-c2ccncc2)cc1C#N` returned a log partition coefficient (logP) of 2.02.

Consider `CC12CCC(OS(=O)(=O)O)CC1CCC1C2CCC2(C)C(C3=CC(=O)OC3)CCC12O` (stereo not drawn), for which the lipophilicity (logP) was -0.14.

Compound `CC(Cl)CCl` (stereo not drawn) returned a logP of 1.98.

Consider `Nc1c(Cl)cc(Cl)cc1Cl`, for which the logP was determined as 3.52.

`Cc1nn(-c2ccccc2)c(Nc2ccc([N+](=O)[O-])cc2)c1[N+](=O)[O-]` gave a logP of 2.78.

Take `CC(C)(C)c1ccc(OCC(OC(=O)n2ccnc2)C(C)(C)C)cc1` (stereo not drawn): the logP came to 4.82.

Take `CCc1c(O)c(=O)ccn1CC`: the log partition coefficient (logP) worked out at 0.25.

Take `CCNC(=O)[C@@H](NC(=O)CNC(=O)c1ccccc1)C(C)C`: the logP came to 1.05.

`COC(=O)c1cc(=O)[nH]c(=O)[nH]1` came in with a lipophilicity (logP) of 0.63.

In turn, `Cn1nnnc1SCC1=C(C(=O)O)N2C(=O)[C@@H](NC(=O)[C@H](O)c3ccccc3)[C@H]2SC1` registered a logP of 0.5.

Compound `CC1=NS(=O)(=O)c2cc(S(N)(=O)=O)c(Cl)cc2N1` yielded a logP of 0.03.

The compound `CCCC(=NOCC)C1C(=O)CC(c2ccccc2)(c2ccccc2)OC1=O` (stereo not drawn) showed a logP of 4.75.

With `Nc1ccc(C(=O)O)cc1N`, the logP stood at 0.13.

Compound `NCCc1cn2ccccc2n1` yielded a lipophilicity (logP) of 0.59.

The compound `O=C1C=CC(=O)c2c(O)ccc(O)c21` gave a logP of 1.79.

`CN(C)C(=O)OCc1cccc([N+](=O)[O-])c1`: the lipophilicity (logP) was 1.98.

`Cc1ccc(Cn2cc(F)c(=O)[nH]c2=O)cc1`: the logP was 1.5.

`CCc1ccc(OCC(OC(=S)n2ccnc2)C(C)(C)C)cc1` (stereo not drawn) showed a logP of 5.09.

Turning to `Cc1nn(-c2ccccc2)c(Nc2ccc(C(F)(F)F)cc2)c1[N+](=O)[O-]`, the logP came out at 3.89.
